# Read-outs that look alike come from different tables or passages of the source.
# Experiments:
# Mite [1] = settings: mite on okra plants, green house, dose 1 ml/gm/lit. spray; for % Mortality at 48 Hrs. / Total No. of dead insect at 48 Hrs.: 48 hrs after application; for % Corrected Mortality at 48 Hrs.: corrected for water control
# chili seedlings = experiment: Response of chili plants, greenhouse growth (Ex. 31); type: in vivo; settings: chili seedlings, dose 1 ml/gm/lit; for CCI 5th Day / Plant Height (cm) 5th Day: 5th day after application; for CCI 10th Day / Plant Height (cm) 10th Day: 10th day after application; for CCI % Increase over pre on 10th Day / Plant Height % Increase over pre on 10th Day / Root Lenght (cm) 10th Day / Stem Girth % Increase over pre on 10th Day / Root Lenght % Increase over control: 10th day; for Root Lenght % Increase over control: vs water control
# Aphid [2] = settings: Aphids on cotton plants, green house; dose 1 ml/gm/lit.; 10 insects/plant, 10 plants/treatment; 48 hrs
# Alternaria alternata [3] = experiment: Alternaria leaf spot/blight on inoculated tomato plants (Ex. 28); type: in vivo; settings: tomato plants, Alternaria alternata; after 7 days; dose 1 ml/gm/lit
# Mealy Bug [4] = settings: mealy bug on cotton plants, green house, dose 1 ml/gm/lit. spray; for % Mortality at 48 Hrs. / Total No. of dead insect at 48 Hrs.: 48 hrs after application; for % Corrected Mortality at 48 Hrs.: corrected for water control
# [5] = Table 13, descriptive; no test described; cited from earlier work
# Alternaria alternata [6] = experiment: In vitro poisoned food technique against fungus (Ex. 20); type: cell-based; settings: poisoned food technique, PDA medium, dose 1 ml/gm/lit., after seven days; for inhibition of growth at 1 mL or g/L: vs untreated control, read-out: % Inhibition of growth
# Aphid [7] = experiment: whole plant or invertebrate; settings: 48 h
# Mealy Bug [8] = settings: Mealy Bug on cotton leaves, dose 1 ml/gm/lit., 48 Hrs.; for Total No. of dead insect at 48 Hrs.: 10 insects/treatment, 4 replications; for % Corrected Mortality at 48 Hrs.: corrected for water control
# tomato seedlings = experiment: Response of tomato plants, greenhouse growth (Ex. 30); type: in vivo; settings: tomato seedlings, dose 1 ml/gm/lit; for Plant Height 5th Day / Stem Girth 5th Day / CCI 5th Day: 5th day after application; for Plant Height 10th Day / Stem Girth 10th Day / CCI 10th Day: 10th day after application; for Plant Height % Increase over pre on 10th Day / Stem Girth % Increase over pre on 10th Day / CCI % Increase over pre on 10th Day / Root Length (cm) 10th Day / Root Length % Increase over control: 10th day; for Root Length % Increase over control: vs water control
# Thrips [9] = experiment: whole plant or invertebrate; settings: in Gossypium hirsutum, 48 h
# Helicoverpa armigera [10] = settings: Helicoverpa armigera 3rd instar on chickpea plants, dose 1 ml/gm/lit. spray; for % Mortality at 72 Hrs.: 72 hrs after application; for % Corrected Mortality at 72 Hrs.: corrected for water control
# Mite [11] = settings: Dose 1 ml/gm/lit.; for Total No. of dead insect at 48 Hrs.: 10 insects/treatment, 4 replications, okra leaves
# Spodoptera litura [12] = settings: Spodoptera litura on castor leaves; dose 1 ml/gm/lit.; 10 insects/treatment; 72 hrs after application
# Spodoptera litura [13] = experiment: whole plant or invertebrate; settings: 72 h
# Thrips [14] = settings: thrips on cotton plants, greenhouse, dose 1 ml/gm/lit. spray; for % Mortality at 48 Hrs. / Total No. of dead insect at 48 Hrs.: 48 hrs after application; for % Corrected Mortality at 48 Hrs.: corrected for water control
# Thrips [15] = settings: Thrips on cotton leaves; dose 1 ml/gm/lit.; 10 insects/treatment; 48 hrs after application
# Helicoverpa armigera [16] = settings: Helicoverpa armigera on okra fruits, dose 1 ml/gm/lit., 72 Hrs.; for Total No. of dead insect at 72 Hrs.: 10 insects/treatment, 4 replications; for % Corrected Mortality at 72 Hrs.: corrected for water control
# Aphid [17] = settings: Dose 1 ml/gm/lit.; for Total No. of dead insect at 48 Hrs.: 10 insects/treatment, 4 replications, cotton leaves
# [18] = read-out: % Corrected Mortality at 48 Hrs.
# [19] = read-out: % Mortality at 48 Hrs.
# [20] = read-out: % Corrected Mortality at 72 Hrs.
# [21] = read-out: % Mortality at 72 Hrs.
compound,measurement,setting,value
CC1CCC(C(C)C)C(O)C1 (stereo not shown) [Menthol],% Mortality at 48 Hrs.,Mite [1],42.50%
same,Total No. of dead insect at 48 Hrs.,Mite [1],42.50
same,% Corrected Mortality at 48 Hrs.,Mite [1],39.47%
same,CCI 5th Day,chili seedlings,10.24
same,Plant Height (cm) 5th Day,chili seedlings,6.48 cm
same,CCI % Increase over pre on 10th Day,chili seedlings,44.78%
same,Plant Height % Increase over pre on 10th Day,chili seedlings,45.21%
same,Root Lenght (cm) 10th Day,chili seedlings,3.02 cm
same,Stem Girth % Increase over pre on 10th Day,chili seedlings,42.37%
same,CCI 10th Day,chili seedlings,13.87
same,Plant Height (cm) 10th Day,chili seedlings,6.52 cm
same,Root Lenght % Increase over control,chili seedlings,10.37%
same,Total No. of dead insect at 48 Hrs.,Aphid [2],75.00
same,% Disease reduction over Control,Alternaria alternata [3],56.20%
same,% Mortality at 48 Hrs.,Mealy Bug [4],67.50%
same,Total No. of dead insect at 48 Hrs.,Mealy Bug [4],67.50
same,% Corrected Mortality at 48 Hrs.,Mealy Bug [4],63.89%
same,Acaricidal Activity - Mode of action,[5],Causes mortality & reduction
same,Antifungal Activity - Mode of action,[5],Inhibits fungal growth
same,Antioxidant Activity - Mode of action,[5],Possesses antioxidant
same,Bactericidal Activity - Mode of action,[5],Menthol showed
same,Insecticidal Activities - Mode of action,[5],"Lower larval weight, reduced"
same,Mean colony Diameter (mm),Alternaria alternata [6],52.00 mm
same,inhibition of growth at 1 mL or g/L,Alternaria alternata [6],40.9%
same,mortality at 1 mL or g/L,Aphid [7]; [18],70.6%
same,mortality at 1 mL or g/L,Aphid [7]; [19],75%
same,Total No. of dead insect at 48 Hrs.,Mealy Bug [8],6.50
same,% Mortality at 48 Hrs.,Mealy Bug [8],65.00%
same,% Corrected Mortality at 48 Hrs.,Mealy Bug [8],63.16%
same,Plant Height 5th Day,tomato seedlings,6.78 cm
same,Stem Girth 5th Day,tomato seedlings,1.48 mm
same,Plant Height 10th Day,tomato seedlings,7.18 cm
same,Stem Girth 10th Day,tomato seedlings,2.19 mm
same,Plant Height % Increase over pre on 10th Day,tomato seedlings,27.30%
same,Stem Girth % Increase over pre on 10th Day,tomato seedlings,54.01%
same,CCI 5th Day,tomato seedlings,13.48
same,CCI % Increase over pre on 10th Day,tomato seedlings,27.44%
same,Root Length (cm) 10th Day,tomato seedlings,3.93 cm
same,CCI 10th Day,tomato seedlings,14.35
same,Root Length % Increase over control,tomato seedlings,18.18%
same,mortality at 1 mL or g/L,Thrips [9]; [18],71.4%
same,mortality at 1 mL or g/L,Thrips [9]; [19],75%
same,% Mortality at 72 Hrs.,Helicoverpa armigera [10],55.00%
same,% Corrected Mortality at 72 Hrs.,Helicoverpa armigera [10],55.00%
same,Total No. of dead insect at 48 Hrs.,Mite [11],4.50
same,% Corrected Mortality at 48 Hrs.,Mite [11],40.54%
same,% Mortality at 48 Hrs.,Mite [11],45.00%
same,Total No. of dead insect at 72 Hrs.,Spodoptera litura [12],2.75
same,mortality at 1 mL or g/L,Spodoptera litura [13]; [20],23.7%
same,mortality at 1 mL or g/L,Spodoptera litura [13]; [21],27.5%
same,% Mortality at 48 Hrs.,Thrips [14],72.50%
same,Total No. of dead insect at 48 Hrs.,Thrips [14],72.50
same,% Corrected Mortality at 48 Hrs.,Thrips [14],69.44%
same,Total No. of dead insect at 48 Hrs.,Thrips [15],7.50
same,Total No. of dead insect at 72 Hrs.,Helicoverpa armigera [16],6.00
same,% Mortality at 72 Hrs.,Helicoverpa armigera [16],60.00%
same,% Corrected Mortality at 72 Hrs.,Helicoverpa armigera [16],60.00%
same,Total No. of dead insect at 48 Hrs.,Aphid [17],7.00
same,% Corrected Mortality at 48 Hrs.,Aphid [17]; 48 hrs,65.71%
same,% Mortality at 48 Hrs.,Aphid [17]; 48 hrs,70.00%
CC1=CC(=O)C(C(C)C)=CC1=O [Thymoquinone],% Mortality at 48 Hrs.,Mite [1],30.00%
same,Total No. of dead insect at 48 Hrs.,Mite [1],30.00
same,% Corrected Mortality at 48 Hrs.,Mite [1],26.32%
same,CCI 5th Day,chili seedlings,13.76
same,Plant Height (cm) 5th Day,chili seedlings,5.77 cm
same,CCI % Increase over pre on 10th Day,chili seedlings,58.19%
same,Plant Height % Increase over pre on 10th Day,chili seedlings,63.27%
same,Root Lenght (cm) 10th Day,chili seedlings,4.16 cm
same,Stem Girth % Increase over pre on 10th Day,chili seedlings,57.48%
same,CCI 10th Day,chili seedlings,14
same,Plant Height (cm) 10th Day,chili seedlings,6.89 cm
same,Root Lenght % Increase over control,chili seedlings,52.17%
same,Total No. of dead insect at 48 Hrs.,Aphid [2],47.50
same,% Disease reduction over Control,Alternaria alternata [3],44.63%
same,% Mortality at 48 Hrs.,Mealy Bug [4],50.00%
same,Total No. of dead insect at 48 Hrs.,Mealy Bug [4],50.00
same,% Corrected Mortality at 48 Hrs.,Mealy Bug [4],44.44%
same,Acaricidal Activity - Mode of action,[5],Contact acaricidal activity
same,Antioxidant Activity - Mode of action,[5],Reducing Oxidative Stress
same,Bactericidal Activity - Mode of action,[5],Inhibitory effect on spore
same,Insecticidal Activities - Mode of action,[5],Decreased larval survival
same,Mean colony Diameter (mm),Alternaria alternata [6],54.00 mm
same,inhibition of growth at 1 mL or g/L,Alternaria alternata [6],38.6%
same,mortality at 1 mL or g/L,Aphid [7]; [18],38.2%
same,mortality at 1 mL or g/L,Aphid [7]; [19],47.5%
same,Total No. of dead insect at 48 Hrs.,Mealy Bug [8],5.25
same,% Mortality at 48 Hrs.,Mealy Bug [8],52.50%
same,% Corrected Mortality at 48 Hrs.,Mealy Bug [8],50.00%
same,Plant Height 5th Day,tomato seedlings,6.58 cm
same,Stem Girth 5th Day,tomato seedlings,1.68 mm
same,Plant Height 10th Day,tomato seedlings,7.69 cm
same,Stem Girth 10th Day,tomato seedlings,2.30 mm
same,Plant Height % Increase over pre on 10th Day,tomato seedlings,41.36%
same,Stem Girth % Increase over pre on 10th Day,tomato seedlings,74.24%
same,CCI 5th Day,tomato seedlings,14.21
same,CCI % Increase over pre on 10th Day,tomato seedlings,30.73%
same,Root Length (cm) 10th Day,tomato seedlings,4.42 cm
same,CCI 10th Day,tomato seedlings,16.21
same,Root Length % Increase over control,tomato seedlings,32.93%
same,mortality at 1 mL or g/L,Thrips [9]; [18],11.4%
same,mortality at 1 mL or g/L,Thrips [9]; [19],22.5%
same,% Mortality at 72 Hrs.,Helicoverpa armigera [10],45.00%
same,% Corrected Mortality at 72 Hrs.,Helicoverpa armigera [10],45.00%
same,Total No. of dead insect at 48 Hrs.,Mite [11],3.25
same,% Corrected Mortality at 48 Hrs.,Mite [11],27.03%
same,% Mortality at 48 Hrs.,Mite [11],32.50%
same,Total No. of dead insect at 72 Hrs.,Spodoptera litura [12],4.25
same,mortality at 1 mL or g/L,Spodoptera litura [13]; [20],39.5%
same,mortality at 1 mL or g/L,Spodoptera litura [13]; [21],42.5%
same,% Mortality at 48 Hrs.,Thrips [14],20.00%
same,Total No. of dead insect at 48 Hrs.,Thrips [14],20.00
same,% Corrected Mortality at 48 Hrs.,Thrips [14],11.11%
same,Total No. of dead insect at 48 Hrs.,Thrips [15],2.25
same,Total No. of dead insect at 72 Hrs.,Helicoverpa armigera [16],4.25
same,% Mortality at 72 Hrs.,Helicoverpa armigera [16],42.50%
same,% Corrected Mortality at 72 Hrs.,Helicoverpa armigera [16],42.50%
same,Total No. of dead insect at 48 Hrs.,Aphid [17],4.75
same,% Corrected Mortality at 48 Hrs.,Aphid [17]; 48 hrs,40.00%

# — patent US20250351832A1, “PHYTOCHEMICALS AS BIOPESTICIDES AND BIOSTIMULANTS” (KAY BEE BIO ORGANICS PVT. LTD., priority 2024, published 2025)
